Tested on: SARS-CoV-2 variants of concern (Alpha, Beta, Gamma, Delta)
Assay type: cell-based

How did the “viral load abrogated by” value turn out when O=C(O)c1ccccn1 [PA, pyridine-2-carboxylic acid] was run?
Its value is about 1 log.

From patent US12268676B2, “Antiviral applications of picolinic acid and its derivatives” (INDIAN INSTITUTE OF SCIENCE, priority 2021, dated 2025)
